Results taken from PubChem BioAssay AID504559 (Johns Hopkins Ion Channel Center, 2011).
Calls of active or inactive are those of the source.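 How the source made its calls: active means dose-dependent block of Kir2.1 potassium channel current at -100 mV within the tested dose range; inactive means no dose-dependent block of that current.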

Target: Inward rectifier potassium channel 2 (Mus musculus) (UniProt P35561)
Experiment: Kir2.1 channel inhibitors, concentration series, SAR follow-up, cell-based, IonWorks automated patch clamp, -100 mV (AID 504559)
Settings: Kir2.1 cell line, IonWorks patch clamp current at -100 mV; for current change, negative = inhibition: at 30 µM (top of the series)

Sequence of Inward rectifier potassium channel 2 (Mus musculus) (P35561 whole entry, looked up): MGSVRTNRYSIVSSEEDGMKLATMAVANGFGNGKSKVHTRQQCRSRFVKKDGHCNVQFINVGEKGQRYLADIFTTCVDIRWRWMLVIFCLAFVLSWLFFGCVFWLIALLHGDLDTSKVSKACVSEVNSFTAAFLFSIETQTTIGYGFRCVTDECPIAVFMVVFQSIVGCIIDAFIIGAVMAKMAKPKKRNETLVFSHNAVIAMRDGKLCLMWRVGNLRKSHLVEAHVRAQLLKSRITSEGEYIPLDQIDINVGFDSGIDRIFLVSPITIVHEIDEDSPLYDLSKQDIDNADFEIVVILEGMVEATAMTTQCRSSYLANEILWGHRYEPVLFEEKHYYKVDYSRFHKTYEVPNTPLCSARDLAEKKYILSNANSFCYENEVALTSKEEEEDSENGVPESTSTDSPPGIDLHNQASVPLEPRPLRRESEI

| SMILES | current change, negative = inhibition | IC50 [µM] |
| --- | --- | --- |
| Cc1noc(C)c1COC(=O)CCN1c2ccccc2Sc2ccccc21 | inactive |  |
| Cc1ccc2nc(NCc3ccccc3)[nH]c2c1 | inactive |  |
| c1ccc(CNc2c3ccccc3nc3ccccc23)cc1 | inactive |  |
| Cc1ccc(S(=O)(=O)N[C@H](C)c2ccccc2)cc1 | inactive |  |
| Cc1ccc(C)c(OCCCNCc2ccccc2)c1 |  | 20.5 |
| C[C@@H](NS(C)(=O)=O)c1ccccc1 | inactive |  |
| CC(O)CNCCCOc1cccc(Oc2ccccc2)c1 (configuration not stated) |  | 11.4 |
| C[C@@H](NS(=O)(=O)c1cc(Cl)cc(Cl)c1O)c1ccccc1 | inactive |  |
| Cc1ccc(Nc2cc(C)nc3c(C)cccc23)cc1 | inactive |  |
| Cc1ccc2nc(N3CCN(CCO)CC3)nc(-c3ccccc3)c2c1 | inactive |  |
| C[C@H](NS(=O)(=O)c1cc(Cl)cc(Cl)c1O)c1ccccc1 | inactive |  |
| C[C@H](NS(C)(=O)=O)c1ccccc1 | inactive |  |
| O=C(NCC1CCCCN1)c1cc(OCC(F)(F)F)ccc1OCC(F)(F)F (configuration not stated) | inactive |  |

The next lines start with the values.

| current change, negative = inhibition | IC50 [µM] | SMILES |
| --- | --- | --- |
|  | 21.3 | C[C@H](NS(=O)(=O)c1ccc(Br)cc1)c1ccccc1 |
| inactive |  | C[C@@H](NS(=O)(=O)c1ccccc1Br)c1ccccc1 |
| inactive |  | C[C@@H](NS(=O)(=O)c1ccc(Cl)cc1)c1ccccc1 |
|  | 21.6 | C[C@H](NS(=O)(=O)c1ccc(Cl)cc1)c1ccccc1 |
| inactive |  | C[C@@H](NS(=O)(=O)c1ccccc1)c1ccccc1 |
|  | 30.9 | C[C@H](NS(=O)(=O)c1cccc(Br)c1)c1ccccc1 |
| inactive |  | C[C@H](NS(=O)(=O)c1ccccc1)c1ccccc1 |
| inactive |  | C[C@H](NS(=O)(=O)c1ccccc1Br)c1ccccc1 |
|  | 30.6 | C[C@@H](NS(=O)(=O)c1cccc(Br)c1)c1ccccc1 |
